Assay: storage study of relatively neutral pH beverage compositions containing glucosamine
Format: physicochemical
Description: Special considerations in packaging, shipping, and or formulations may also be considered when delivering a targeted amount of glucosamine in the beverage compositions. As an example, shake-type beverages, such as the beverage composition provided in Table 3, are generally formulated to have a relatively neutral pH value.
Such a formulation was determined to deliver 1,500 mg of glucosamine based on results from a storage study. During the study, in which such beverages were stored for a period of 12 months at ambient (73 degrees Fahrenheit) temperature, it was determined that approximately 77% of glucosamine originally present had degraded during a 12 month storage period. Thus, information regarding the average shelf-life and/or delivery mechanisms for specific products may be utilized when formulating the beverage compositions. Such factors may include the temperature, time to consumption, packaging the compositions are stored within, among others.

degradation rate in beverage (formulated in beverages having neutral pHs (shake-type)) | glucosamine originally present that had degraded during storage (relatively neutral pH beverage, around about 20 mg/ml glucosamine, stored 12 months at ambient (73 degrees Fahrenheit) temperature) | SMILES
degrades at a quickened rate |  | Cl.N[C@H]1C(O)O[C@H](CO)[C@@H](O)[C@@H]1O (some centres unmarked) [Glucosamine hydrochloride, glucosamine hydrochloride]
 | approximately 77% | N[C@H]1C(O)O[C@H](CO)[C@@H](O)[C@@H]1O (some centres unmarked) [glucosamine]

From US20070292483A1, “REDUCING MUSCLE SORENESS WITH GLUCOSAMINE COMPOSITIONS” (Stokely-Van Camp, Inc., priority 2006, published 2007)
